Reference: patent US8735425B2, “Tetrahydroisoquinoline derivative” (Daiichi Sankyo Company, Limited, priority 2008, dated 2014)

Columns and labels:
[1] = test system: Male C57BL/6N mice; assay: Triglyceride absorption suppression after fat loading (in vivo DGAT1 inhibitory effect); settings: Mus musculus, po; dose of 10 mg/kg or lower, orally administered, mice fasted overnight, plasma triglyceride after fat loading; read-out: Triglyceride absorption suppressive activity
Protocol: The DGAT1 enzyme is important for the digestion and absorption of triglycerides, and the inhibition of DGAT1 in the small intestine suppresses the absorption of triglycerides. The in vivo activity of its DGAT1 inhibitory effect was evaluated with the suppressed absorption of triglycerides after fat loading as an index. Male C57BL/6N mice (7-12 weeks old, body weight: 17-25 g, Charles River Laboratories Japan Inc.) fasted overnight were assigned to Vehicle group 1, Vehicle group 2, and each test compound group, to which a vehicle (0.5% methylcellulose) or each test compound (1 to 10 mg/kg) suspended in vehicle was orally administered (5 mL/kg). After a given time, a lipoprotein lipase inhibitor (Pluronic-F127: Sigma-Aldrich Corp., 1 g/kg, 20% by weight dissolved in saline) was intraperitoneally administered (5 mL/kg) to each group. Immediately thereafter, distilled water for the Vehicle group 1 or a 20% fat-containing emulation (Intralipid 20%: TERUMO CORP., Japan) for the Vehicle group 2 and the compound groups were orally administered thereto (0.2 mL/mouse). After a given time of 1 to 4 hours after administration, blood was collected from the tail vein or the right ventricle, and plasma was immediately separated and collected. Then, the triglyceride concentration in plasma was measured using a commercially available kit (Triglyceride E-Test Wako: Wako Pure Chemical Industries, Ltd.). In this method, the administration of the lipoprotein lipase inhibitor suppresses the hydrolysis of triglycerides in the blood such that the triglycerides are accumulated in the blood. These triglycerides are derived from two origins: exogenous triglycerides absorbed in the gastrointestinal tract and endogenous triglycerides released from the liver. The triglyceride absorption suppressive activity of each test compound was calculated based on the equation shown below by removing the influence of the endogenous triglycerides. In this context, each test compound was separately confirmed to have no influence on the concentration of the endogenous triglycerides.
Triglyceride absorption suppressive activity (%)=100−[(Triglyceride concentration of each test compound group)−(Triglyceride concentration of Vehicle group 1)]/[(Triglyceride concentration of Vehicle group 2)−(Triglyceride concentration of Vehicle group 1)]×100

[2] = target: T1, DGAT1 enzyme (Homo sapiens, UniProt O75907); assay: DGAT1 inhibitory activity test; type: biochemical; settings: test compound concentration of 0.05 μg/ml; read-out: Inhibitory Rate
T1 construct: made in house
T1 sequence (O75907 1-488): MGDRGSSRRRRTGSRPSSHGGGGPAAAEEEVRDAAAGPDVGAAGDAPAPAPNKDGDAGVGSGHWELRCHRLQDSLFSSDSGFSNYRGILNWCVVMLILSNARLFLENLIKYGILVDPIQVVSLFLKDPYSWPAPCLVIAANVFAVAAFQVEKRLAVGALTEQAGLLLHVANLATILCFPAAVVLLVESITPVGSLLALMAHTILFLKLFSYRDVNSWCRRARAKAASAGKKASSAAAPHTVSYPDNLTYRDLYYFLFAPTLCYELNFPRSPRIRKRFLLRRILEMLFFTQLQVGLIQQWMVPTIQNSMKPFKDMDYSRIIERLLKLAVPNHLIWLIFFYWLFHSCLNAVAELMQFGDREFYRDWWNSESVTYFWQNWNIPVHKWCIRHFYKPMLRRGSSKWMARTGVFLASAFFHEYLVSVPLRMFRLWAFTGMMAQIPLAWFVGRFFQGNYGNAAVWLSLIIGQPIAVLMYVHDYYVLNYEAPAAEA
In short: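 Reaction at 23° C for 30 min in 175 mM Tris-HCl pH 8.0, 8 mM MgCl2, 1 mg/ml BSA, 0.5% Triton X-100 with 0.3 mM 1,2-dioleoyl-sn-glycerol and 10 μM [14C]-oleoyl-CoA. Triglyceride extracted into heptane, separated by TLC, radioactivity quantified; % inhibition versus vehicle control, 0-min background subtracted.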

Row | inhibition at 0.05 µg/mL [2] [%] | SMILES | inhibition in vivo at up to 10 mg/kg [1] [%]
1 | ≥ 50 | CCOc1cc(NC(=O)Nc2ccc3c(c2)CCN(C(=O)O[C@H]2CC[C@H](CC(=O)O)CC2)C3)ccc1C [Example 54, trans-6-[3-(3-ethoxy-4-methyl-phenyl)-ureido]-3,4-dihydro-1H-isoquinoline-2-carboxylic acid 4-carboxymethyl-cyclohexyl ester] | ≥ 60
2 | ≥ 50 | CCOc1ccc(C)c(NC(=O)Nc2ccc3c(c2)CCN(C(=O)O[C@H]2CC[C@H](CC(=O)O)CC2)C3)c1 [Example 55, trans-6-[3-(5-ethoxy-2-methyl-phenyl)-ureido]-3,4-dihydro-1H-isoquinoline-2-carboxylic acid 4-carboxymethyl-cyclohexyl ester] | ≥ 60
3 | ≥ 50 | COc1cc(F)cc(NC(=O)Nc2ccc3c(c2)CCN(C(=O)O[C@H]2CC[C@H](CC(=O)O)CC2)C3)c1 [Example 56, trans-6-[3-(3-fluoro-5-methoxy-phenyl)-ureido]-3,4-dihydro-1H-isoquinoline-2-carboxylic acid 4-carboxymethyl-cyclohexyl ester] | ≥ 60
4 | ≥ 50 | O=C(O)C[C@H]1CC[C@H](OC(=O)N2CCc3cc(NC(=O)Nc4ccc(F)c(F)c4)ccc3C2)CC1 [Example 57, trans-6-[3-(3,4-difluoro-phenyl)-ureido]-3,4-dihydro-1H-isoquinoline-2-carboxylic acid 4-carboxymethyl-cyclohexyl ester] | ≥ 60
5 | ≥ 50 | COc1cc(NC(=O)Nc2ccc3c(c2)CCN(C(=O)O[C@H]2CC[C@H](CC(=O)O)CC2)C3)ccc1F [Example 58, trans-6-[3-(4-fluoro-3-methoxy-phenyl)-ureido]-3,4-dihydro-1H-isoquinoline-2-carboxylic acid 4-carboxymethyl-cyclohexyl ester] | ≥ 60
6 | ≥ 50 | CCOc1cc(NC(=O)Nc2ccc3c(c2)CCN(C(=O)O[C@H]2CC[C@H](CC(=O)O)CC2)C3)ccc1F [Example 59, trans-6-[3-(3-ethoxy-4-fluoro-phenyl)-ureido]-3,4-dihydro-1H-isoquinoline-2-carboxylic acid 4-carboxymethyl-cyclohexyl ester] | ≥ 60
7 | ≥ 50 | COc1ccc(F)c(NC(=O)Nc2ccc3c(c2)CCN(C(=O)O[C@H]2CC[C@H](CC(=O)O)CC2)C3)c1 [Example 60, trans-6-[3-(2-fluoro-5-methoxy-phenyl)-ureido]-3,4-dihydro-1H-isoquinoline-2-carboxylic acid 4-carboxymethyl-cyclohexyl ester] | ≥ 60
8 | ≥ 50 | CCOc1ccc(F)c(NC(=O)Nc2ccc3c(c2)CCN(C(=O)O[C@H]2CC[C@H](CC(=O)O)CC2)C3)c1 [Example 61, trans-6-[3-(5-ethoxy-2-fluoro-phenyl)-ureido]-3,4-dihydro-1H-isoquinoline-2-carboxylic acid 4-carboxymethyl-cyclohexyl ester] | ≥ 60

Second part, the molecule before the results:

Row | SMILES | inhibition at 0.05 µg/mL [2] [%] | inhibition in vivo at up to 10 mg/kg [1] [%]
9 | O=C(O)C[C@H]1CC[C@H](OC(=O)N2CCc3cc(NC(=O)Nc4cc(F)c(F)c(F)c4)ccc3C2)CC1 [Example 32, trans-6-[3-(3,4,5-trifluoro-phenyl)-ureido]-3,4-dihydro-1H-isoquinoline-2-carboxylic acid 4-carboxymethyl-cyclohexyl ester] | ≥ 50 | ≥ 60
10 | O=C(Nc1ccc2c(c1)CCN(C(=O)O[C@H]1CC[C@H](Cc3noc(=O)[nH]3)CC1)C2)Nc1ccccc1F [Example 41, trans-6-[3-(2-fluoro-phenyl)-ureido]-3,4-dihydro-1H-isoquinoline-2-carboxylic acid 4-(5-oxo-4,5-dihydro-[1,2,4]oxadiazol-3-ylmethyl)-cyclohexyl ester] | ≥ 50 | ≥ 60
11 | O=C(Nc1ccc2c(c1)CCN(C(=O)O[C@H]1CC[C@H](Cc3cc(O)no3)CC1)C2)Nc1ccccc1F [Example 43, trans-6-[3-(2-fluoro-phenyl)-ureido]-3,4-dihydro-1H-isoquinoline-2-carboxylic acid 4-(3-hydroxy-isoxazol-5-ylmethyl)-cyclohexyl ester] | ≥ 50 | ≥ 60
12 | O=C(Nc1ccc2c(c1)CCN(C(=O)O[C@H]1CC[C@H](Cc3nn[nH]n3)CC1)C2)Nc1ccccc1F [Example 44, trans-6-[3-(2-fluoro-phenyl)-ureido]-3,4-dihydro-1H-isoquinoline-2-carboxylic acid 4-(2H-tetrazol-5-ylmethyl)-cyclohexyl ester] | ≥ 50 | ≥ 60
13 | O=C(Nc1ccc2c(c1)CCN(C(=O)O[C@H]1CC[C@H](CC(=O)OC[C@@H](O)CO)CC1)C2)Nc1ccccc1F [Example 45, trans-6-[3-(2-fluoro-phenyl)-ureido]-3,4-dihydro-1H-isoquinoline-2-carboxylic acid 4-((S)-2,3-dihydroxy-propoxycarbonylmethyl)-cyclohexyl ester] | ≥ 50 | ≥ 60
14 | O=C(O)C[C@H]1CC[C@H](OC(=O)N2CCc3cc(Nc4nc5ccc(Cl)cc5o4)ccc3C2)CC1 [Example 47, trans-6-(6-chloro-benzoxazol-2-ylamino)-3,4-dihydro-1H-isoquinoline-2-carboxylic acid 4-carboxymethyl-cyclohexyl ester] | ≥ 50 | ≥ 60
15 | CCOc1ccc(C)cc1NC(=O)Nc1ccc2c(c1)CCN(C(=O)O[C@H]1CC[C@H](CC(=O)O)CC1)C2 [Example 48, trans-6-[3-(2-ethoxy-5-methyl-phenyl)-ureido]-3,4-dihydro-1H-isoquinoline-2-carboxylic acid 4-carboxymethyl-cyclohexyl ester] | ≥ 50 | ≥ 60
16 | COc1cccc(NC(=O)Nc2ccc3c(c2)CCN(C(=O)O[C@H]2CC[C@H](CC(=O)O)CC2)C3)c1 [Example 49, trans-6-[3-(3-methoxy-phenyl)-ureido]-3,4-dihydro-1H-isoquinoline-2-carboxylic acid 4-carboxymethyl-cyclohexyl ester] | ≥ 50 | ≥ 60
17 | O=C(O)C[C@H]1CC[C@H](OC(=O)N2CCc3cc(NC(=O)Nc4ccccc4)ccc3C2)CC1 [Example 50, trans-6-(3-phenyl-ureido)-3,4-dihydro-1H-isoquinoline-2-carboxylic acid 4-carboxymethyl-cyclohexyl ester] | ≥ 50 | ≥ 60
18 | O=C(O)C[C@H]1CC[C@H](OC(=O)N2CCc3cc(NC(=O)Nc4cccc(OC(F)F)c4)ccc3C2)CC1 [Example 51, trans-6-[3-(3-difluoromethoxy-phenyl)-ureido]-3,4-dihydro-1H-isoquinoline-2-carboxylic acid 4-carboxymethyl-cyclohexyl ester] | ≥ 50 | ≥ 60
19 | O=C(O)C[C@H]1CC[C@H](OC(=O)N2CCc3cc(NC(=O)Nc4cccc(OC(F)(F)F)c4)ccc3C2)CC1 [Example 52, trans-6-[3-(3-trifluoromethoxy-phenyl)-ureido]-3,4-dihydro-1H-isoquinoline-2-carboxylic acid 4-carboxymethyl-cyclohexyl ester] | ≥ 50 | ≥ 60
20 | CCOc1cccc(NC(=O)Nc2ccc3c(c2)CCN(C(=O)O[C@H]2CC[C@H](CC(=O)O)CC2)C3)c1C [Example 53, trans-6-[3-(3-ethoxy-2-methyl-phenyl)-ureido]-3,4-dihydro-1H-isoquinoline-2-carboxylic acid 4-carboxymethyl-cyclohexyl ester] | ≥ 50 | ≥ 60
